In patent US20080176936A1, “Classes of Compounds that Interact with Integrins” (priority 2005, published 2008):

Experiments:
αllbβ3 integrin = molecular target: T1, αllbβ3 integrin (Homo sapiens, UniProt P05106+P08514); test: ELISA: inhibition of binding of αllbβ3 integrin membrane preparation to coated extracellular matrix protein; conditions: human platelet membrane preparation
T1 construct: Human platelet membrane preparations were used as a source of αllbβ3 integrin; from tissue; host or cells: human platelets (membrane preparation)
T1 sequence (P08514 32-887 limits assumed): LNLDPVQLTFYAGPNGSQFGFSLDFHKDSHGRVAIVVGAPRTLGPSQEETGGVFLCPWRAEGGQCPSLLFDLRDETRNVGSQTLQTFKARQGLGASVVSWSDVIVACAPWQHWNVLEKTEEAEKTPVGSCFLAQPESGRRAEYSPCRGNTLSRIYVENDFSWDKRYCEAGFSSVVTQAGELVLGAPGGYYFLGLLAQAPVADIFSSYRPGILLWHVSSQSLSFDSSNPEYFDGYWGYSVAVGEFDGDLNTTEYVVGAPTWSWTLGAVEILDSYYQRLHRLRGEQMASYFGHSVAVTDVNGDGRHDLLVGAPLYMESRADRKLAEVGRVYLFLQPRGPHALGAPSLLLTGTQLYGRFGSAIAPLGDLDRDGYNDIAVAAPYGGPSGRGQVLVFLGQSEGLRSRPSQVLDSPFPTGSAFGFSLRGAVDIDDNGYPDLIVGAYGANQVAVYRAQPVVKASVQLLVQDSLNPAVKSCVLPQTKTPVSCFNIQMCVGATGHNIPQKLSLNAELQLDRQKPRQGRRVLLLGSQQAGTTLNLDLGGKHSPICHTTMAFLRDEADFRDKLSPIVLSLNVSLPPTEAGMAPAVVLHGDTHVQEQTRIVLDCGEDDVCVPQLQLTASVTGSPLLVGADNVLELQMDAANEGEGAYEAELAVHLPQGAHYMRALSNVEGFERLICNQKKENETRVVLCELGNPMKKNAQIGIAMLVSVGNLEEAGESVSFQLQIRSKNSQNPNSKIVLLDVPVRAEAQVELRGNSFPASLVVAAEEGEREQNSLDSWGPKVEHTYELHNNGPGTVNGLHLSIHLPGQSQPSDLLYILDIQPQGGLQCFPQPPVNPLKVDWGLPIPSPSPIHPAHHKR
T1 sequence (P08514 891-1039 partner limits assumed): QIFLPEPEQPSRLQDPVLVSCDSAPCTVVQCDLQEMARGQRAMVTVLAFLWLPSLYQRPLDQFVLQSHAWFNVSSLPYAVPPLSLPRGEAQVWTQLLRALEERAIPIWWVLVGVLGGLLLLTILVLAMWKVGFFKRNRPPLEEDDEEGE
T1 sequence (P05106 27-788): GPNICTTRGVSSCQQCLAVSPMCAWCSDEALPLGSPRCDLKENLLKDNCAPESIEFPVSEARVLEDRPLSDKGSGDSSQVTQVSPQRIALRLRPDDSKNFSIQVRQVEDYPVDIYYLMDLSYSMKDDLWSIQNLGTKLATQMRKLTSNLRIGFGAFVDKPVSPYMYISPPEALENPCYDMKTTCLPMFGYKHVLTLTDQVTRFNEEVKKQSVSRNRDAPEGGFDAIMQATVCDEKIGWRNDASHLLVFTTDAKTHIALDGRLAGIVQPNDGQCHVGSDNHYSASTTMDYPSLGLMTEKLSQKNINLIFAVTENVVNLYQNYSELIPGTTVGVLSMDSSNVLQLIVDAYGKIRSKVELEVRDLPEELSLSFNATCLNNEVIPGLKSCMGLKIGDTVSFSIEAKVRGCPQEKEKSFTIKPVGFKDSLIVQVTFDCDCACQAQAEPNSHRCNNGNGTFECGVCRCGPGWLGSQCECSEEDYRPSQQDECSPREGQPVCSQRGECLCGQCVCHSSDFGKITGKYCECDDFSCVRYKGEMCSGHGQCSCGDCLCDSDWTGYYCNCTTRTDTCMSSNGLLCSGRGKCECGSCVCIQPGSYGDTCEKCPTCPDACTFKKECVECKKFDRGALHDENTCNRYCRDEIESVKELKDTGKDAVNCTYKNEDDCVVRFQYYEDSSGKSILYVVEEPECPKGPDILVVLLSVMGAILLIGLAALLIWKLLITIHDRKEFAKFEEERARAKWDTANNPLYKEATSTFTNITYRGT
Experimental: (§1) An ELISA assay based on the published method of Bethert et al., 2000, J Biol Chem 275, 33308-23, was employed.
(§2) Briefly, appropriate microtitre plates were coated with either Fibrinogen or Vitronectin (10 μg/well). These extracellular matrix proteins contain the RGD amino acid sequence that is recognized by αllbβ3 integrin. Human platelet membrane preparations were used as a source of αllbβ3 integrin and the cell line WM-115 was used as a source of αVβ3 integrin. Inhibition of the binding of αllbβ3 integrin containing membrane preparations to the extracellular matrix protein was determined by pre-incubating the platelet membrane preparation with test or control compounds. The binding of the αllbβ3 integrin containing membrane was the quantitated by using a rabbit anti-integrinβ3 antibody, a horse radish peroxidase coupled second antibody and a standard colorimetric detection system.

αVβ3 integrin = molecular target: T2, αVβ3 integrin (Homo sapiens, UniProt P05106+P06756); test: ELISA: inhibition of binding of αVβ3 integrin (source WM-115 cell line) to coated extracellular matrix protein; conditions: WM-115 cell line as integrin source
T2 construct: the cell line WM-115 was used as a source of αVβ3 integrin; endogenous in cells; host or cells: WM-115 cell line
T2 sequence (P06756 31-889 limits assumed): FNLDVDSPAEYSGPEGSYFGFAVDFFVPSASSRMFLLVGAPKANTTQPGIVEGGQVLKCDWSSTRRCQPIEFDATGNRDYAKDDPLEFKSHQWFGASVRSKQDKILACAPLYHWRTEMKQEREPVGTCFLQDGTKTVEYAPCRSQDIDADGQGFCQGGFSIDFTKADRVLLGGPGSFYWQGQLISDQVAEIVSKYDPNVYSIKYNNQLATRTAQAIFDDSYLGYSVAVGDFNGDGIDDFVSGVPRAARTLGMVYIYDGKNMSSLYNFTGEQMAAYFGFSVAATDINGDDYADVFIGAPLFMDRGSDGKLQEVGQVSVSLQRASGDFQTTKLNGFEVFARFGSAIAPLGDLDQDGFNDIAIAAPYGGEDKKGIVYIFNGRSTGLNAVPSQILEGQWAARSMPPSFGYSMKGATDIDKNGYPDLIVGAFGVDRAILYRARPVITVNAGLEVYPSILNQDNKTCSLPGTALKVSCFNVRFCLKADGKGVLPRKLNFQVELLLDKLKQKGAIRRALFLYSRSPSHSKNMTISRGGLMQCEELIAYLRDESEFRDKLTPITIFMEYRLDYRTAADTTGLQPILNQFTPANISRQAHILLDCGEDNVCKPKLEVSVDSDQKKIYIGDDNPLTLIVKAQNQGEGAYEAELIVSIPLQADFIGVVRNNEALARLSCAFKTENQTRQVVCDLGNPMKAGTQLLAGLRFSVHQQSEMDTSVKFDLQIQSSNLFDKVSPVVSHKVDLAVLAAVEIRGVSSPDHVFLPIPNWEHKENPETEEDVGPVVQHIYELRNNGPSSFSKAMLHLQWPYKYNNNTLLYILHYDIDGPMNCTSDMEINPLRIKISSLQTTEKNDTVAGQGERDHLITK
T2 sequence (P06756 891-1048 partner limits assumed): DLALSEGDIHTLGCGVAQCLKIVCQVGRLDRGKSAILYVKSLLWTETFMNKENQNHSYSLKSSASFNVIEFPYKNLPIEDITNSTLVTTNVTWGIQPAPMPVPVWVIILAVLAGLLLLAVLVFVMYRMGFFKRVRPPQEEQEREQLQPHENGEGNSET
T2 sequence (P05106 27-788): as the sequence (P05106 27-788) above
Experimental: as §1, §2

| Structure (SMILES) | INHIBITION @ 250 uM RECEPTOR allBb3 SUBSTRATE FIBRINOGEN (αllbβ3 integrin) | INHIBITION 250 uM RECEPTOR allBb3 SUBSTRATE VITRONECTIN (αllbβ3 integrin) | INHIBITION 250 uM RECEPTOR aVb3 SUBSTRATE FIBRINOGEN (αVβ3 integrin) |
| --- | --- | --- | --- |
| CCOC1O[C@H](COCc2ccccc2)[C@@H](O)[C@H](OCC(=O)O)[C@H]1NC(=O)CCNC(=N)N (single isomer, unassigned) [Compound 48] | ++ (61% to 80% inhibition at 250 micromolar) | +++ (81% to 100% inhibition at 250 micromolar) | +++ (81% to 100% inhibition at 250 micromolar) |
| CCOC1O[C@H](COCc2ccccc2)[C@@H](O)[C@H](OCC(=O)O)[C@H]1NC(=O)CCNC(=N)N (single isomer, unassigned) [Compound 49] | ++ (61% to 80% inhibition at 250 micromolar) | +++ (81% to 100% inhibition at 250 micromolar) | +++ (81% to 100% inhibition at 250 micromolar) |
| CCOC1O[C@H](COCc2ccc(Br)cc2)[C@@H](O)[C@H](OCC(=O)O)[C@H]1NC(=O)CCNC(=N)N (single isomer, unassigned) [Compound 50] | + (36% to 60% inhibition at 250 micromolar) | +++ (81% to 100% inhibition at 250 micromolar) | +++ (81% to 100% inhibition at 250 micromolar) |
| CCOC1O[C@H](COCc2ccc(Br)cc2)[C@@H](O)[C@H](OCC(=O)O)[C@H]1NC(=O)CCNC(=N)N (single isomer, unassigned) [Compound 51] | ++ (61% to 80% inhibition at 250 micromolar) | +++ (81% to 100% inhibition at 250 micromolar) | ++ (61% to 80% inhibition at 250 micromolar) |
| CCOC1O[C@H](COCc2ccc(Br)cc2)[C@@H](O)[C@H](OCC(=O)O)[C@H]1NC(=O)CCNC(=N)N (single isomer, unassigned) [Compound 52] | + (36% to 60% inhibition at 250 micromolar) | ++ (61% to 80% inhibition at 250 micromolar) | +++ (81% to 100% inhibition at 250 micromolar) |
| CCOC1O[C@H](COCc2cccc(N)c2)[C@@H](O)[C@H](OCC(=O)O)[C@H]1NC(=O)c1ccccc1 (single isomer, unassigned) [Compound 54] | − (0% to 35% inhibition at 250 micromolar) | ++ (61% to 80% inhibition at 250 micromolar) | + (36% to 60% inhibition at 250 micromolar) |
| CCOC1O[C@H](COCc2cccc(N)c2)[C@@H](O)[C@H](OCC(=O)O)[C@H]1NC(=O)c1ccccc1 (single isomer, unassigned) [Compound 55] | + (36% to 60% inhibition at 250 micromolar) | +++ (81% to 100% inhibition at 250 micromolar) | +++ (81% to 100% inhibition at 250 micromolar) |
| CCOC1O[C@H](COCc2ccccc2)[C@@H](O)[C@H](OCc2ccc(C(=O)O)cc2)[C@H]1NC(=O)CCNC(=N)N (single isomer, unassigned) [Compound 57] | − (0% to 35% inhibition at 250 micromolar) | +++ (81% to 100% inhibition at 250 micromolar) | +++ (81% to 100% inhibition at 250 micromolar) |
| CCOC1O[C@H](COCc2ccccc2)[C@@H](O)[C@H](OCc2ccc(C(=O)O)cc2)[C@H]1NC(=O)CCNC(=N)N (single isomer, unassigned) [Compound 58] | + (36% to 60% inhibition at 250 micromolar) | +++ (81% to 100% inhibition at 250 micromolar) | +++ (81% to 100% inhibition at 250 micromolar) |
| N=C(N)NCCC(=O)N[C@H]1C(O)O[C@H](COCc2ccccc2)[C@@H](O)[C@@H]1OCc1ccc(C(=O)O)cc1 (single isomer, unassigned) [Compound 59] | + (36% to 60% inhibition at 250 micromolar) | +++ (81% to 100% inhibition at 250 micromolar) | +++ (81% to 100% inhibition at 250 micromolar) |
| CCOC1O[C@H](COCc2ccc(Br)cc2)[C@@H](O)[C@H](OCc2ccc(C(=O)O)cc2)[C@H]1NC(=O)CCNC(=N)N (single isomer, unassigned) [Compound 60] | + (36% to 60% inhibition at 250 micromolar) | +++ (81% to 100% inhibition at 250 micromolar) | +++ (81% to 100% inhibition at 250 micromolar) |
| CCOC1O[C@H](COCc2ccc(Br)cc2)[C@@H](O)[C@H](OCc2ccc(C(=O)O)cc2)[C@H]1NC(=O)CCNC(=N)N (single isomer, unassigned) [Compound 61] | − (0% to 35% inhibition at 250 micromolar) | +++ (81% to 100% inhibition at 250 micromolar) | +++ (81% to 100% inhibition at 250 micromolar) |
| N=C(N)NCCC(=O)N[C@H]1C(O)O[C@H](COCc2ccc(Br)cc2)[C@@H](O)[C@@H]1OCc1ccc(C(=O)O)cc1 (single isomer, unassigned) [Compound 63] | ++ (61% to 80% inhibition at 250 micromolar) | +++ (81% to 100% inhibition at 250 micromolar) | − (0% to 35% inhibition at 250 micromolar) |
| CCOC1OC(COCc2cccc(N)c2)C(O)C(OCc2ccc(C(=O)O)cc2)C1NC(=O)c1ccc(Cl)cc1 (single isomer, unassigned) [Compound 64] | − (0% to 35% inhibition at 250 micromolar) | ++ (61% to 80% inhibition at 250 micromolar) | + (36% to 60% inhibition at 250 micromolar) |
| Nc1cccc(COCC2OC(O)C(NC(=O)c3ccc(Cl)cc3)C(OCc3ccc(C(=O)O)cc3)C2O)c1 (single isomer, unassigned) [Compound 66] | + (36% to 60% inhibition at 250 micromolar) | +++ (81% to 100% inhibition at 250 micromolar) | + (36% to 60% inhibition at 250 micromolar) |
| Nc1cccc(COCC2OC(O)C(NC(=O)c3ccc(Cl)cc3)C(OCc3ccc(C(=O)O)cc3)C2O)c1 (single isomer, unassigned) [Compound 67] | + (36% to 60% inhibition at 250 micromolar) | +++ (81% to 100% inhibition at 250 micromolar) | − (0% to 35% inhibition at 250 micromolar) |
| CCOC1OC(COCc2ccccc2)C(O)C(OCc2cccc(N)c2)C1NC(=O)c1ccc(C(=O)O)cc1 (single isomer, unassigned) [Compound 68] | − (0% to 35% inhibition at 250 micromolar) | ++ (61% to 80% inhibition at 250 micromolar) | ++ (61% to 80% inhibition at 250 micromolar) |
| CCOC1OC(COCc2ccccc2)C(O)C(OCc2cccc(N)c2)C1NC(=O)c1ccc(C(=O)O)cc1 (single isomer, unassigned) [Compound 69] | − (0% to 35% inhibition at 250 micromolar) | +++ (81% to 100% inhibition at 250 micromolar) | +++ (81% to 100% inhibition at 250 micromolar) |
| Nc1cccc(COC2C(O)C(COCc3ccccc3)OC(O)C2NC(=O)c2ccc(C(=O)O)cc2)c1 (single isomer, unassigned) [Compound 70] | + (36% to 60% inhibition at 250 micromolar) | +++ (81% to 100% inhibition at 250 micromolar) | +++ (81% to 100% inhibition at 250 micromolar) |
| Nc1cccc(COC2C(O)C(COCc3ccccc3)OC(O)C2NC(=O)c2ccc(C(=O)O)cc2)c1 (single isomer, unassigned) [Compound 71] | − (0% to 35% inhibition at 250 micromolar) | +++ (81% to 100% inhibition at 250 micromolar) | +++ (81% to 100% inhibition at 250 micromolar) |
| CCOC1OC(COCc2ccc(Br)cc2)C(O)C(OCc2cccc(N)c2)C1NC(=O)c1ccc(C(=O)O)cc1 (single isomer, unassigned) [Compound 72] | + (36% to 60% inhibition at 250 micromolar) | +++ (81% to 100% inhibition at 250 micromolar) | +++ (81% to 100% inhibition at 250 micromolar) |
| CCOC1OC(COCc2ccc(Br)cc2)C(O)C(OCc2cccc(N)c2)C1NC(=O)c1ccc(C(=O)O)cc1 (single isomer, unassigned) [Compound 73] | ++ (61% to 80% inhibition at 250 micromolar) | +++ (81% to 100% inhibition at 250 micromolar) | − (0% to 35% inhibition at 250 micromolar) |
